Measured values as given in patent publication US6355799B1, “Substituted benzene compounds, process for their preparation, and herbicidal and defoliant compositions containing them” (ISK Americas Incorporated, priority 1997, dated 2002).

Tests used:
Format in all cases: in vivo
[1] = tested on: green foxtail (Setaria viridis, SETVI); experiment: Pre-emerge test, greenhouse herbicide activity screening; settings: pre-emerge, 14 days after application, scale 0-100
Method in brief: (§1)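 Plants grown in 10 cm pots of sandy loam mix received acetone-dissolved compounds through a moving flat-fan nozzle. Doses ranged from 15 to 1000 g ai/ha. Pre-emerge pots were seeded one day earlier, post-emerge pots 8–21 days earlier. Fourteen days on, each pot was graded 0–100 for damage.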

[2] = tested on: johnsongrass (Sorghum halepense, SORHA); experiment: as above; settings: pre-emerge, 14 days after application, scale 0-100
Method in brief: as §1

[3] = tested on: sicklepod (Cassia obtusifolia, CASOB); experiment: as above; settings: pre-emerge, 14 days after application, scale 0-100
Method in brief: as §1

[4] = tested on: ivyleaf morningglory (Ipomoea hederacea, IPOHE); experiment: as above; settings: pre-emerge, 14 days after application, scale 0-100
Method in brief: as §1

[5] = tested on: velvetleaf (Abutilon theophrasti, ABUTH); experiment: as above; settings: pre-emerge, 14 days after application, scale 0-100
Method in brief: as §1

[6] = tested on: barnyardgrass (Echinochloa crus-galli, ECHCG); experiment: as above; settings: pre-emerge, 14 days after application, scale 0-100
Method in brief: as §1

[7] = tested on: large crabgrass (Digitaria sanguinalis, DIGSA); experiment: as above; settings: pre-emerge, 14 days after application, scale 0-100
Method in brief: as §1

[8] = tested on: lambsquarters (Chenopodium album, CHEAL); experiment: as above; settings: pre-emerge, 14 days after application, scale 0-100
Method in brief: as §1

[9] = tested on: field corn (Zea mays L., var. Dekalb 535, CORN); experiment: Post-emerge test, crop safety; settings: post-emerge, 14 days after application, rating scale 0-100
Method in brief: (§2)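 Each test used a mechanized track sprayer delivering 187 l/ha of acetone solution at 15–1000 g ai/ha. Post-emerge foliage at 2–3 leaves was treated with added 0.25% v/v non-ionic surfactant and bottom-watered only. Injury was assessed on day 14, where 100 means total kill.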

[10] = tested on: upland rice (Oryza sp., var. Tebonnet, RICE); experiment: Post-emerge test, crop safety; settings: post-emerge, 14 days after application, rating scale 0-100
Method in brief: as §2

[11] = tested on: field corn (Zea mays L., var. Dekalb 535, CORN); experiment: Pre-emerge test, crop safety; settings: pre-emerge, 14 days after application, scale 0-100
Method in brief: (§3)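 Fourteen days after spraying, crop and weed injury was graded visually from 0, no effect, to 100, every plant dead. Test substances were dissolved in acetone and applied at 15–1000 g ai/ha with a flat-fan nozzle. Application was either pre-emergence, one day after sowing, or post-emergence at the 2–3 leaf stage.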

[12] = tested on: upland rice (Oryza sp., var. Tebonnet, RICE); experiment: Pre-emerge test, crop safety; settings: pre-emerge, 14 days after application, scale 0-100
Method in brief: as §3

[13] = tested on: redroot pigweed (Amaranthus retroflexus, AMARE); experiment: Pre-emerge test, greenhouse herbicide activity screening; settings: pre-emerge, 14 days after application, scale 0-100
Method in brief: as §1

[14] = tested on: green foxtail (Setaria viridis, SETVI); experiment: Post-emerge test, greenhouse herbicide activity screening; settings: post-emerge, 14 days after application, rating scale 0-100
Method in brief: (§4)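 Applied at 15–1000 g ai/ha from acetone in 187 l/ha spray volume. Post-emergence applications included 0.25% v/v non-ionic surfactant and reached plants sown 8–21 days before. Pre-emergence applications were incorporated by surface watering. Efficacy or crop damage was rated on a 0–100 scale after 14 days.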

[15] = tested on: sicklepod (Cassia obtusifolia, CASOB); experiment: as above; settings: post-emerge, 14 days after application, rating scale 0-100
Method in brief: as §4

[16] = tested on: ivyleaf morningglory (Ipomoea hederacea, IPOHE); experiment: as above; settings: post-emerge, 14 days after application, rating scale 0-100
Method in brief: as §4

[17] = tested on: redroot pigweed (Amaranthus retroflexus, AMARE); experiment: as above; settings: post-emerge, 14 days after application, rating scale 0-100
Method in brief: as §4

[18] = tested on: velvetleaf (Abutilon theophrasti, ABUTH); experiment: as above; settings: post-emerge, 14 days after application, rating scale 0-100
Method in brief: as §4

[19] = tested on: barnyardgrass (Echinochloa crus-galli, ECHCG); experiment: as above; settings: post-emerge, 14 days after application, rating scale 0-100
Method in brief: as §4

[20] = tested on: large crabgrass (Digitaria sanguinalis, DIGSA); experiment: as above; settings: post-emerge, 14 days after application, rating scale 0-100
Method in brief: as §4

[21] = tested on: lambsquarters (Chenopodium album, CHEAL); experiment: as above; settings: post-emerge, 14 days after application, rating scale 0-100
Method in brief: as §4

Cn1c(C(F)(F)F)cc(=O)n(-c2ccc(C#N)cc2NC(=O)c2ccc3ccccc3c2)c1=O [2-140]
0: phytotoxicity rating CORN (crop damage) ([11]; 63 g ai/ha)
85: phytotoxicity rating RICE (crop damage) ([12]; 250 g ai/ha) | ECHCG phytotoxicity rating ([19]; 250 g ai/ha)
10: phytotoxicity rating SORHA ([2]; 63 g ai/ha) | phytotoxicity rating IPOHE ([4]; 63 g ai/ha) | CORN phytotoxicity rating (crop damage) ([9]; 63 g ai/ha)
95: phytotoxicity rating DIGSA ([7]; 250 g ai/ha)
15: phytotoxicity rating CORN (crop damage) ([11]; 250 g ai/ha)
40: phytotoxicity rating CASOB ([3]; 63 g ai/ha) | phytotoxicity rating ECHCG ([6]; 63 g ai/ha) | phytotoxicity rating DIGSA ([7]; 63 g ai/ha) | SETVI phytotoxicity rating ([14]; 63 g ai/ha)
60: phytotoxicity rating SORHA ([2]; 250 g ai/ha) | SETVI phytotoxicity rating ([14]; 250 g ai/ha)
20: DIGSA phytotoxicity rating ([20]; 63 g ai/ha)
100: phytotoxicity rating CASOB ([3]; 250 g ai/ha) | phytotoxicity rating IPOHE ([4]; 250 g ai/ha) | phytotoxicity rating ABUTH ([5]; 63 g ai/ha) | phytotoxicity rating ABUTH ([5]; 250 g ai/ha) | phytotoxicity rating CHEAL ([8]; 63 g ai/ha) | phytotoxicity rating CHEAL ([8]; 250 g ai/ha) | phytotoxicity rating AMARE ([13]; 63 g ai/ha) | phytotoxicity rating AMARE ([13]; 250 g ai/ha) | CASOB phytotoxicity rating ([15]; 63 g ai/ha) | CASOB phytotoxicity rating ([15]; 250 g ai/ha) | IPOHE phytotoxicity rating ([16]; 63 g ai/ha) | IPOHE phytotoxicity rating ([16]; 250 g ai/ha) | AMARE phytotoxicity rating ([17]; 63 g ai/ha) | AMARE phytotoxicity rating ([17]; 250 g ai/ha) | ABUTH phytotoxicity rating ([18]; 63 g ai/ha) | ABUTH phytotoxicity rating ([18]; 250 g ai/ha) | CHEAL phytotoxicity rating ([21]; 63 g ai/ha) | CHEAL phytotoxicity rating ([21]; 250 g ai/ha)
80: phytotoxicity rating SETVI ([1]; 250 g ai/ha) | phytotoxicity rating ECHCG ([6]; 250 g ai/ha) | RICE phytotoxicity rating (crop damage) ([10]; 250 g ai/ha)
50: phytotoxicity rating SETVI ([1]; 63 g ai/ha) | RICE phytotoxicity rating (crop damage) ([10]; 63 g ai/ha)
65: DIGSA phytotoxicity rating ([20]; 250 g ai/ha)
70: CORN phytotoxicity rating (crop damage) ([9]; 250 g ai/ha)
30: phytotoxicity rating RICE (crop damage) ([12]; 63 g ai/ha) | ECHCG phytotoxicity rating ([19]; 63 g ai/ha)

COc1c(Cl)cc(F)c(-n2c(=O)cc(C(F)(F)F)n(C)c2=O)c1NC(=O)COc1ccc(Cl)cc1Cl [2-154]
95: phytotoxicity rating SORHA ([2]; 250 g ai/ha) | phytotoxicity rating CASOB ([3]; 250 g ai/ha) | phytotoxicity rating ECHCG ([6]; 250 g ai/ha) | phytotoxicity rating DIGSA ([7]; 250 g ai/ha) | SETVI phytotoxicity rating ([14]; 250 g ai/ha) | ECHCG phytotoxicity rating ([19]; 250 g ai/ha)
100: phytotoxicity rating SETVI ([1]; 250 g ai/ha) | phytotoxicity rating IPOHE ([4]; 250 g ai/ha) | phytotoxicity rating ABUTH ([5]; 63 g ai/ha) | phytotoxicity rating ABUTH ([5]; 250 g ai/ha) | phytotoxicity rating CHEAL ([8]; 63 g ai/ha) | phytotoxicity rating CHEAL ([8]; 250 g ai/ha) | phytotoxicity rating AMARE ([13]; 63 g ai/ha) | phytotoxicity rating AMARE ([13]; 250 g ai/ha) | CASOB phytotoxicity rating ([15]; 250 g ai/ha) | IPOHE phytotoxicity rating ([16]; 63 g ai/ha) | IPOHE phytotoxicity rating ([16]; 250 g ai/ha) | AMARE phytotoxicity rating ([17]; 63 g ai/ha) | AMARE phytotoxicity rating ([17]; 250 g ai/ha) | ABUTH phytotoxicity rating ([18]; 63 g ai/ha) | ABUTH phytotoxicity rating ([18]; 250 g ai/ha) | CHEAL phytotoxicity rating ([21]; 63 g ai/ha) | CHEAL phytotoxicity rating ([21]; 250 g ai/ha)
35: phytotoxicity rating RICE (crop damage) ([12]; 63 g ai/ha)
10: CORN phytotoxicity rating (crop damage) ([9]; 63 g ai/ha) | phytotoxicity rating CORN (crop damage) ([11]; 63 g ai/ha) | DIGSA phytotoxicity rating ([20]; 63 g ai/ha)
60: phytotoxicity rating CASOB ([3]; 63 g ai/ha)
90: RICE phytotoxicity rating (crop damage) ([10]; 250 g ai/ha) | phytotoxicity rating CORN (crop damage) ([11]; 250 g ai/ha)
40: SETVI phytotoxicity rating ([14]; 63 g ai/ha)
65: RICE phytotoxicity rating (crop damage) ([10]; 63 g ai/ha)
80: phytotoxicity rating SORHA ([2]; 63 g ai/ha) | phytotoxicity rating IPOHE ([4]; 63 g ai/ha) | ECHCG phytotoxicity rating ([19]; 63 g ai/ha)
50: phytotoxicity rating ECHCG ([6]; 63 g ai/ha) | CASOB phytotoxicity rating ([15]; 63 g ai/ha)
85: phytotoxicity rating DIGSA ([7]; 63 g ai/ha) | CORN phytotoxicity rating (crop damage) ([9]; 250 g ai/ha) | DIGSA phytotoxicity rating ([20]; 250 g ai/ha)
70: phytotoxicity rating SETVI ([1]; 63 g ai/ha) | phytotoxicity rating RICE (crop damage) ([12]; 250 g ai/ha)
